In patent publication US11028127B2, “Peptides capable of reactivating p53 mutants” (Yeda Research and Development Co. Ltd., priority 2013, dated 2021):
Read-outs that look alike come from different tables or passages of the source. Where no end group is shown, it is not given here.

Assays:
p53 DBD = p53 DBD (Homo sapiens, UniProt P04637); settings: cited from earlier work
[1] = tested on: H1299 cells stably transfected with Mut-p53 (ts) A135V; experiment: qRT-PCR of p53 target genes (p21, PUMA, Mdm2); type: cell-based; settings: 5 ug/ml, 18 hours, 37° C., relative to non-treated cells; positive control (32° C.) 9-11 fold
Procedure: H1299 cells are p53 null and are widely used for p53 research. H1299 cells stably transfected with Mut-p53 (ts) A135V were used. […] 18 hours later cells were harvested, followed by extraction of RNA, cDNA synthesis and real time PCR analysis. The expression level of 3 representative p53 target genes, p21, PUMA and Mdm2, was examined.
For the in vivo functional screening, several experimental systems were used. One system is based on H1299 cells, which are p53 null and are widely used for p53 research. H1299 cells stably transfected with Mut-p53 (ts) A135V were used. This form of p53 is a temperature sensitive mutant, which has a mutant conformation at 37° C. and a WT conformation at 32° C. […] 18 hours later cells were harvested, followed by extraction of RNA, cDNA synthesis and real time PCR analysis. The expression level of 3 representative p53 target genes was examined; p21, PUMA and Mdm2. Expression of genes in H1299-ts at 37° C. is considered as background level and all results are normalized to it, and also to the GAPDH housekeeping gene. Expression of genes in H1299-ts at 32° C. represents WT p53 conformation and therefore serves as a positive control.
Several tested peptides indeed caused a significant increase in the expression of p21, PUMA and Mdm2. This was the case for pCAP-130, pCAP-135, pCAP-142, pCAP-144 and pCAP-148. […]

[2] = Crystal violet viability assay; type: cell-based; settings: human, shp53 (Mut-p53 knockdown) subline
Text: FIGS. 15A and 15B are bar graphs illustrating the effect of the various indicated peptides on the viability of breast cancer cells expressing different Mut-p53 isoforms, as determined by crystal violet assay. FIG. 15A: MDA-MB-231 cells expressing Mut-p53 with a mutation at position 280 of the DBD. FIG. 15B: SKBR3 cells expressing Mut-p53 with mutation at position 175 within the DBD. The bar graphs in FIGS. 15A and 15B show for each tested peptide the optical density reads at 595 nm, reflecting the number of cells in the plate after treatment, normalized to the non-treated (NT) samples.
Cells were cultured in 96 wells plates with 2500-4000 cells/well in 0.1 ml and incubated overnight at 37° C. in order to adhere to the plate. Serial dilutions of different peptides (0.5 μg/ml) were added in 0.1 ml aliquots and the plates incubated for additional 48 h at 37° C. Then medium was removed and cell lysis was determined by staining the cells with crystal violet (0.5%) in methanol/water (1:4, v/v), 50 μl each well, for 10 min, followed by 3 washes with PBS. Afterwards, 10% acetic acid (50 μl) was added to each well and shaken for 10 min. Then, automatic plate reading was performed at 595 nm.
Experiments using different cancer cell lines expressing endogenously different p53 mutant isoforms were performed. FIGS. 15A and 15B illustrate two representative experiments performed on MDA-MB-231 (FIG. 15A) and SKBR3 (FIG. 15B) breast cancer cells expressing Mut-p53 with mutations at positions 280 or 175, respectively, within the DNA Binding Domain (DBD). To examine the peptides' specificity for Mut-p53, the control used was such cells with a knockdown of Mut-p53 (shp53).

[3] = tested on: SKBR3 cells expressing endogenous R175H p53; settings: SKBR3 ShCon cells, 5 ug/ml, 18 hours
Procedure: FIG. 16 is a bar graph illustrating the effect of the indicated peptides on activation of Mut-p53 by measuring transactivation of p53 target genes as determined by qRT-PCR. SKBR3 ShCon cells and SKBR3 Shp53 cells knocked down for p53 expression were used. The cells were plated in 12-well dishes and the indicated peptides were added directly to the medium at a concentration of 5 ug/ml. 18 hours later cells were harvested, followed by qRT-PCR analysis. Expression level of p21, PUMA and Mdm2 was evaluated. FIG. 16 illustrates the relative fold induction of transcription of the tested genes in the various samples relative to their transcription level in non-treated cells. GAPDH mRNA was measured in parallel as a control.
RNA was obtained using Macherey-Nagel NucleoSpin RNA II Kit on cells pellet according to the manufacturer's protocol. Aliquots of 0.4-1 μg were reverse transcribed using Bio-RT 2000 (Bio-Lab) and random hexamer primers. Quantitative real-time polymerase chain reaction (QRT-PCR) was performed on an ABI 7300 instrument (Applied Biosystems) using PerfeCTa SYBR Green FastMix ROX (Quanta). RT-PCR primers used are presented in Table 1 (primers sequences are presented 5′ to 3′).
The tested peptides were further tested for their effect on p53 target gene expression in SKBR3 cells expressing endogenous R175H p53. […] In essence, these cells were plated in 12-well dishes; the indicated peptides were added directly to the medium at a concentration of 5 ug/ml. 18 hours later cells were harvested, followed by qRT-PCR analysis. Expression level of p21, PUMA and Mdm2 was evaluated. Expression of those genes in non-treated cells is considered background and all results were normalized to it, as well as to GAPDH.

R249S p53 = target: T1, R249S p53 (Homo sapiens, UniProt P04637, R249S); experiment: TK-RGC-luc luciferase reporter assay in H1299 p53−/− cells; type: cell-based; settings: peptides added 24 hours after transfection, read at 48 hours
T1 construct: expressed in transfected cells; host or cells: H1299 p53-/- cells, transient transfection
Procedure: (§1) FIG. 12 is a bar graph illustrating the relative luciferase activity (cLuc/gLuc) as measured in the various tested samples. Transient transfection of H1299 p53^−/− cells was performed with plasmids expressing WT p53, R175H p53, R249S p53 or empty vector as control, together with TK-RGC-luc, where luciferase expression is under control of a tandem array of multiple p53-responsive elements. 24 hours after transfection, cells were treated with the test peptides. 48 hours after transfection, a sample of the culture medium was taken for bioluminescence measurements.
(§2) The oligonucleotide (RGC-W) that has the sequence 5′-[…]-3′ (SEQ ID NO:362), and the oligonucleotide mutant RGC oligonucleotide (RGC-M) that has the sequence 5′-[…]-3′ (SEQ ID NO:363), are both derived from Kern et al. (Kern, S. E., et al., Identification of p53 as a sequence-specific DNA-binding protein. Science, 1991. 252(5013): p. 1708-11), and serve as a consensus binding sites for WT p53.
(§3) These motifs were cloned into the KPN and Eco53IK sites in pCLuc Mini-TK 2 Vector (NEB, Cat No. N0324S ). The Luciferase construct was used to assess transcriptional activation of p53 in test cells.
(§4) H1299 p53-null cells were cultured overnight and then transfected with the luciferase constructs using MaxFect Transfection Agent (Mediatech) according to the manufacturer's protocol. Prior to the transfection, cell medium was exchanged to OPTI-MEM.
(§5) The cells were treated with different peptides 24 hours after transfection. After additional 24 hours, growth medium was collected to 96 black plates: 40 μl for Cluc assay, and 20 μl for Gluc assay. Assay was performed using Turner BioSystems Modulus Microplate. Value was calculated by Cluc/gluc/NT (non-treated cells).
(§6) As additional screening strategy used to identify reactivating peptides was performed in vivo and is based on a reporter gene assay. It measures p53 transcriptional activity by quantifying the activity of a reporter gene, placed under the control of a promoter containing 17 repeats of a p53 consensus binding site (RGC). The luciferase assay is performed on living cells and therefore provides an indication on the effect of test peptides on Mut-p53 function in the context of intact cells.
(§7) For the in vivo luciferase based screening, H1299 cells were used. Transient transfection of these p53^−/− cells was performed with vectors expressing WT p53, R175H p53, R249S p53 or empty vector as control (Suad, O., et al., Structural basis of restoring sequence-specific DNA binding and transactivation to mutant p53 by suppressor mutations. J. Mol. Biol., 2009. 385(1): p. 249-65). Cells were also co-transfected with TK-RGC-luc (CAT. No. NEB, N0324S). 24 hours after transfection, cells were treated with the test peptides. […]

R175H p53 = target: T2, R175H p53 (Homo sapiens, UniProt P04637, R175H); experiment: as above; type: cell-based; settings: peptides added 24 hours after transfection, read at 48 hours
T2 construct: a hot spot full length mutant p53 Mut-p53 R175H (R175H p53); expressed in transfected cells; host or cells: H1299 p53-/- cells, transient transfection
Procedure: as §1, §2, §3, §4, §5, §6, §7

Mut-p53 (R175H p53) = target: T3, Mut-p53 (R175H p53) (Homo sapiens, UniProt P04637, R175H); experiment: p53/DNA binding ELISA kit (R&D), binding to p53-RE DNA; type: biochemical; settings: H1299-R175H p53 cell extracts, vs background (NT)
T3 construct: a hot spot full length mutant p53 Mut-p53 R175H (R175H p53); expressed in transfected cells; host or cells: H1299 (p53-null) cells stably overexpressing R175H p53; cell extract
Text: A commercial p53/DNA binding kit (R&D) was used, according to manufacturer instructions. Briefly, 96 well plates were coated with anti-p53 antibody overnight. Cell extracts containing p53 were reacted with an oligonucleotide that contains a p53 consensus binding site, labeled with biotin, in the presence or absence (NT) of test peptides. WT p53 is expected to bind this DNA binding site as well as to the antibody coating the test wells of the plate. Excess p53 and oligos are washed away and streptavidin-HRP is used to quantify the amount of oligos in the well, which is proportional to the DNA bound by p53. TMB assay was performed to determine HRP levels (450 nm). The results are presented as relative absorbance (at 450 nm) (Y-Axis) of each tested sample. MCF7 and the H1299-Mut-p53 (ts) A135V cells serve as positive controls for WT p53.
For these experiments, a commercial p53/DNA binding kit of “R&D” (Cat-DYC1355-5 Lot-1273366FA) was used, in accordance with manufacturer guide lines. Briefly, 96 well plates are coated with anti-p53 antibody overnight. Cell extracts containing p53 are reacted with an oligonucleotide that contains a p53 consensus binding site (provided in the kit), labeled with biotin, in the presence or absenc.
e (NT) of test peptides. WT p53 is expected to bind this DNA binding site as well as to the antibody coating the test wells of the plate. Excess p53 and oligos were washed away and streptavidin-HRP was used to quantify the amount of oligos in the well, which is proportional to the DNA bound by p53. TMB assay was performed to determine HRP (ES001-1L-K) levels (450 nm).
To measure the effect of the tested peptides on DNA binding of Mut-p53, a commercial ELISA kit, (R&D Systems DYC1355-5, Lot-1273366FA), was used as a high-throughput assay to quantify p53 activation. This kit uses a 96-well plate format. The kit was used according to manufacturer's instructions. Wells were coated with anti-p53 antibody overnight. Cell extracts containing p53 were reacted with a biotin labeled oligonucleotide containing a p53 consensus binding site (included in the kit). WT p53 is expected to bind this oligo as well as the antibody coating the wells. Excess p53 and oligo were washed away in wash buffer (0.05% Tween 20 in PBS, pH 7.2-7.4; R&D Systems, Catalog #WA126). Then, streptavidin-HRP (R&D Systems, Part 890803, provided in the kit) was added for 15-45 min to quantify the amount of oligo in the well, which is proportional to the DNA bound by p53. If the addition of a peptide to Mut-p53 extracts increases ELISA reading compared to background, this peptide is considered as functionally effective and may be selected for further analysis. […] As with the conformational screening, MCF7 and the H1299-Mut-p53 (ts) A135V cells served as positive controls for WT p53. Extracts were added to the wells coated with αp53-Ab, and after several washing steps, streptavidin-HRP was added for 1 hour, and then plates were washed again and TMB (substrate to HRP) assay was performed.

In the case of `COc1ccc(/C=C/c2nc(NCCCN(C)C)c3ccccc3n2)cc1` [CP-31398], the “binding to the p53 DBD by NMR” value (p53 DBD) is listed as “failed to detect any binding”.
In the case of “GGGGGGGGGRRRRRRR [pCAP-76, negative control peptide]”, the “induction of transcription of p53 target genes p21, PUMA and Mdm2” value [1] is reported as “did not cause induction of p53 targets”.
With IRGRIIRRRRRRRRRR [pCAP-155] the cytotoxicity at 48 h ([2]; MDA-MB-231 shp53 (Mut-p53 knockdown) breast cancer cells, read-out: reduction in viability, MDA-MB-231 shp53 cells) was 30 to 40%, the cytotoxicity at 48 h ([2]; SKBR3 shp53 (Mut-p53 knockdown) breast cancer cells, read-out: reduction in viability, SKBR3 shp53 cells) was 30 to 40% and the “transactivation of p53 target genes (p21, PUMA, Mdm2)” value (“transactivation of p53 target genes” below) [3] was “among the highest transactivation levels”.
With SFILFIRRGRLGRRRRRRRRR [pCAP-144] the “transactivation of p53 target genes” value [3] was “among the highest transactivation levels”.
For TRILCIVRKKRRQRRRRGDR [pCAP-75], the “transcription from TK-RGC-luc in the presence of R249S p53” value (R249S p53) was “induce transcription from TK-RGC-luc”, the “transcription from TK-RGC-luc in the presence of R175H p53” value (R175H p53) was “induce transcription from TK-RGC-luc” and the “binding of H1299-R175H p53 extracts to p53-RE DNA” value (Mut-p53 (R175H p53)) was “elevate the binding of H1299-R175H p53 extracts to p53-RE DNA”.
With WNHHHSTPHPRRRRRRRRRR [pCAP-148] the “transactivation of p53 target genes” value [3] was “among the highest transactivation levels”.
